Test results published in patent US9271905B2, “Process for preparing polyurea microcapsules” (Firmenich S.A., priority 2010, dated 2016).
Where two headings read alike, the source gives them in different places.

Assay: LogP of the perfume ingredients
Type: physicochemical
Conditions: perfume ingredients of Table 1a

Compound	logP (read-out: LogP)	logP
CC12CCC(CC1)C(C)(C)O2 [Eucalyptol]	3.13	
CC1C(C)(C)C2=C(C(=O)CCC2)C1(C)C (stereo not shown) [Cashmeran®, 1,2,3,5,6,7-Hexahydro-1,2,3,3-pentamethyl-4h-inden-4-one]		4.31
C=CC(C)(CCC=C(C)C)OC(C)=O (stereo not shown) [Linalyl acetate]	4.39	
C=CC(C)CCCC(C)(C)OC(C)=O (stereo not shown) [Dihydromyrcenyl acetate]		4.47
CC12CCC(CC1=O)C2(C)C (stereo not shown) [Camphor]	3.04	
CCCCCCCCCC(C)C=O (stereo not shown) [2-Methylundecanal]	4.67	
C=CC(C)CCCC(C)(C)O (stereo not shown) [Dihydromyrcenol]		3.47
CC(C)[C@@H]1CC[C@@H](C)CC1=O [Menthone]	2.87	
CC(=O)C(C)=CC1C(C)=CCCC1(C)C (stereo not shown) [Isoraldeine® 70, 3-Methyl-4-(2,6,6-trimethyl-2cyclohexen-1-yl)-3-buten-2-one]	4.84	
CC(C)=CCCC1=CCC(C)(C=O)CC1 (stereo not shown) [Precyclemone B, 1-Methyl-4-(4-methyl-3-pentenyl)cyclohex-3-ene-1-carboxaldehyde]	5.18	
